# Measured values taken from patent publication US8088806B2 (Achillion Pharmaceuticals, Inc., priority 2005, dated 2012).
# System: HCV replicon
# Test: Replicon based assay of HCV replication inhibition (NPT ELISA)
# Type: cell-based, Hepatitis C virus
# Conditions: Hepatitis C virus, Huh-7, 72 h, Table I; Huh-7 HCV replicon-containing cells, three days; read-out: Activity
# In short: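 Huh-7 cells carrying a bicistronic HCV replicon (neo, EMCV-IRES-driven NS3–NS5B) treated overnight after seeding with usually 6 concentrations, 10 to 0.03 micromolar, for three days at 37° C without G418. Replication read as NPT level by captured ELISA; matched-DMSO wells and interferon alpha as controls.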
row,SMILES,EC50 [nM]
1,"Clc1ccc(-c2csc(Nc3cccc(OCc4ccccc4)c3)n2)cc1Cl [compound 28, N-(3-(benzyloxy)phenyl)-4-(3,4-dichlorophenyl)thiazol-2-amine]",< 1000
2,"CCCCCOc1ccc(Nc2nc(-c3ccc(Cl)cc3)cs2)cn1 [compound 66, N-(4-(4-chlorophenyl)thiazol-2-yl)-6-(pentyloxy)pyridin-3-amine]",< 1000
3,"CCCCCOc1ccc(Nc2nc(-c3ccc(C)nc3)cs2)cc1C(F)(F)F [compound 154, N-(3-(trifluoromethyl)-4-(pentyloxy)phenyl)-4-(6-methylpyridin-3-yl)thiazol-2-amine]",< 1000
4,"c1cncc(-c2csc(Nc3ccc4c(c3)Cc3ccccc3-4)n2)c1 [compound 104, N-(9H-fluoren-7-yl)-4-(pyridin-3-yl)thiazol-2-amine]",1000 to 10000
5,"CCCCCOc1ccc(Nc2nc(-c3ccc(CC(=O)O)s3)cs2)cc1C(F)(F)F [compound 200, 2-(5-(2-(3-(trifluoromethyl)-4-(pentyloxy)phenylamino)thiazol-4-yl)thiophen-2-yl)acetic acid]",< 1000
6,"N#Cc1ccc(Nc2nc(-c3ccc(Cl)c(Cl)c3)cs2)cc1 [compound 52, 4-(4-(3,4-dichlorophenyl)thiazol-2-ylamino)benzonitrile]",> 10000
7,"c1ccc(-c2cccc(CNc3nc(-c4cccnc4)cs3)c2)cc1 [compound 79, N-(3-phenyl-benzyl)-4-(pyridin-3-yl)thiazol-2-amine]",> 10000
8,"CCCCCOc1ccc(N(C)c2nc(C(=O)Nc3ccc(Cl)cc3)cs2)cc1C(F)(F)F [compound 159, 2-(N-(3-(trifluoromethyl)-4-(pentyloxy)phenyl)-N-methylamino)-N-(4-chlorophenyl)thiazole-4-carboxamide]",> 10000
9,"CCCCCOc1ccc(Nc2csc(-c3cccnc3)n2)cc1C(F)(F)F [compound 13, N-(3-(trifluoromethyl)-4-(pentyloxy)phenyl)-2-(pyridin-3-yl)thiazol-4-amine]",> 10000
10,"Clc1ccc(-c2csc(NC3=NN(c4ccccc4)CC3)n2)cc1 [compound 142, N-(4-(4-chlorophenyl)thiazol-2-yl)-4,5-dihydro-1-phenyl-1H-pyrazol-3-amine]",> 10000
11,"FC(F)(F)Oc1ccc(Nc2nc(-c3ccc(Cl)c(Cl)c3)cs2)cc1 [compound 44, 4-(3,4-dichlorophenyl)-N-(4-(trifluoromethoxy)phenyl)thiazol-2-amine]",> 10000

# Same assay, conditions: Hepatitis C virus, Huh-7, 72 h, Table III; Huh-7 HCV replicon-containing cells, three days; read-out: Activity
row,SMILES,EC50 [nM]
1,"CCCCCOc1ccc(Nc2nc(Cc3ccc(F)c(F)c3)cs2)cc1F [compound 610, 4-(3,4-difluorobenzyl)-N-(3-fluoro-4-(pentyloxy)phenyl)thiazol-2-amine]",> 10000
2,"CCCCCCCCN(C)c1ccc(Nc2nc(-c3ccc(O)c(O)c3)cs2)cc1C(F)(F)F [compound 571, 4-(2-(4-(N-methyl-N-octylamino)-3-(trifluoromethyl)phenylamino)thiazol-4-yl)benzene-1,2-diol]",< 1000
3,"CCCCCCCCN(C)c1ccc(Nc2nc(-c3ccc(-c4ccccn4)s3)cs2)cc1C(F)(F)F [compound 576, 2-(trifluoromethyl)-N^1-methyl-N^1-octyl-N^4-(4-(5-(pyridin-2-yl)thiophen-2-yl)thiazol-2-yl)benzene-1,4-diamine]",< 1000
4,"CCCCCCCCOc1ccc(Nc2nc(Cc3ccc(Cl)cc3)cs2)cc1 [compound 634, 4-(4-chlorobenzyl)-N-(4-(octyioxy)phenyl)thiazol-2-amine]",> 10000
5,"CCCCCCCCOc1ccc(Nc2nccs2)cc1C(F)(F)F [compound 605, N-(3-(trifluoromethyl)-4-(octyloxy)phenyl)thiazol-2-amine]",< 1000
6,"CCCCCCCCOc1ccc(Nc2nc(O)cs2)cc1C(F)(F)F [compound 650, 2-(3-(trifluoromethyl)-4-(octyloxy)phenylamino)thiazol-4-ol]",1000 to 10000
7,"CCCCCN(C)c1ccc(Nc2nc(Cc3ccc(F)cc3)cs2)cc1C(F)(F)F [compound 631, N^4-(4-(4-fluorobenzyl)thiazol-2-yl)-2-(trifluoromethyl)-N^1-methyl-N^1-pentylbenzene-1,4-diamine]",> 10000
8,"CCCCCOc1ccc(Nc2nc(-c3cnc4ccccc4c3)cs2)cc1C(F)(F)F [compound 538, N-(3-(trifluoromethyl)-4-(pentyloxy)phenyl)-4-(quinolin-3-yl)thiazol-2-amine]",< 1000
9,"CCCCCOc1ccc(Nc2nc(-c3cncc(C(=O)N(C)C)c3)cs2)cc1C(F)(F)F [compound 647, 5-(2-(3-(trifluoromethyl)-4-(pentyloxy)phenylamino)thiazol-4-yl)-N,N-dimethylpyridine-3-carboxamide]",< 1000

# Same assay, conditions: Hepatitis C virus, replicon based assay of HCV replication inhibition; Table II; read-out: Activity
row,SMILES,EC50 [nM]
1,"CCCCCOc1ccc(Nc2nc(-c3ccc(N4CCCC4)nc3)cs2)cc1C(F)(F)F [compound 450, N-(3-(trifluoromethyl)-4-(pentyloxy)phenyl)-4-(6-(pyrrolidin-1-yl)pyridin-3-yl)thiazol-2-amine]",< 1000
2,"O=C1COc2ccc(-c3csc(Nc4ccc(OCC5CC5)c(C(F)(F)F)c4)n3)cc2N1 [compound 253, 6-(2-(4-(cyclopropylmethoxy)-3-(trifluoromthyl)phenyl-amino)thiazol-4-yl)-2H-benzo[b][1,4]oxazin-3(4H)-one]",1000 to 10000
3,"CCCCCCCCOc1ccc(Nc2nc(-c3ccc(OCC(=O)OCC)cc3)cs2)cc1 [compound 461, ethyl 2-(4-(2-(4-(octyloxy)phenylamino)thia-zol-4-yl)phenoxy)acetate]",< 1000
4,"CCCCCCCCOc1ccc(Nc2nc(-c3ccc(C(=O)N(C)C)nc3)cs2)cn1 [compound 468, 5-(2-(6-(octyloxy)pyridin-3-ylamino)thiazol-4-yl)-N,N-dimethylpyridine-2-carboxamide]",1000 to 10000
5,"CCCCCOc1ccc(Nc2nc(CN3CCC(O)CC3)cs2)cc1C(F)(F)F [compound 272, 1-((2-(4-(pentyloxy)-3-(trifluoromethyl)phenyl-amino)thiazol-4-yl)methyl)piperidin-4-ol]",< 1000
6,"CCCCCOc1ccc(Nc2nc(CN3CCC(CO)CC3)cs2)cc1F [compound 292, (1-((2-(3-fluoro-4-(pentyloxy)phenylamino)thia-zol-4-yl)methyl)piperidin-4-yl)methanol]",1000 to 10000
7,"CCCCCOc1ccc(Nc2nc(CN3CCC(C(N)=O)CC3)cs2)cc1C(F)(F)F [compound 267, 1-((2-(4-(pentyloxy)-3-(trifluoromethyl)phenyl-amino)thiazol-4-yl)methyl)piperidine-4-carboxamide]",< 1000
8,"CCCCCOc1ccc(Nc2nc(-c3sc(-c4cnccn4)nc3C)cs2)cc1C(F)(F)F [compound 414, N-(3-(trifluoromethyl)-4-(pentyloxy)phenyl)-4-(4-methyl-2-(pyrazin-2-yl)thiazol-5-yl)thiazol-2-amine]",< 1000
9,"CCCCCOc1ccc(Nc2nc(CN3CCCC(C)C3)cs2)cc1C(F)(F)F (centres unmarked) [compound 276, 4-((3-methylpiperidin-1-yl)methyl)-N-(4-(pentyloxy)-3-(trifluoromethyl)phenyl)thia-zol-2-amine]",< 1000
10,"CCCCCCCc1ccc(Nc2nc(-c3cccnc3)cs2)cc1 [compound 483, N-(4-heptylphenyl)-4-(pyridin-3-yl)thiazol-2-amine]",< 1000
11,"CCCCCOc1ccc(Nc2nc(C3(C(=O)OCC)CC3)cs2)cc1C(F)(F)F [compound 367, ethyl 1-(2-(4-(pentyloxy)-3-(trifluoromethyl)pheenyl-amino)thiazol-4-yl)cyclopropanecarboxylate]",> 10000
12,"CCCCCCCCOc1ccc(Nc2nc(CN3CCC(N(C)C(=O)OC(C)(C)C)C3)cs2)cc1 (centres unmarked) [compound 309, tert-butyl methyl(1-((2-(4-(octyloxy)phenylamino)thia-zol-4-yl)methyl)pyrrolidin-3-yl)carbamate]",1000 to 10000

# Same assay, conditions: Hepatitis C virus, replicon based assay of HCV replication inhibition; Table IV; read-out: Activity
row,SMILES,EC50 [nM]
1,"FC(F)(F)c1ccc(-c2csc(Nc3ccc(OCC4CCCCC4)c(C(F)(F)F)c3)n2)nc1 [compound 766, N-(4-(cyclohexylmethoxy)-3-(trifluoromethyl)phenyl)-4-(5-(trifluoromethyl)pyridin-2-yl)thiazol-2-amine]",< 1000
2,"CCC(C)c1ccc(Nc2nc(-c3cccnc3)cs2)cc1 (centres unmarked) [compound 872, N-(4-sec-butylphenyl)-4-(pyridin-3-yl)thiazol-2-amine]",1000 to 10000
3,"CCCCCCCCOc1ccc(Nc2nc(-c3cccnc3)c(Cl)s2)cc1C(F)(F)F [compound 918, 5-chloro-N-(3-(trifluoromethyl)-4-(octyloxy)phenyl)-4-(pyridin-3-yl)thiazol-2-amine]",< 1000
4,O=S1(=O)CCN(Cc2ccc(Nc3nc(-c4cccnc4)cs3)cc2)CC1 [compound 792],> 10000
5,"CCCCCCCCS(=O)(=O)c1ccc(Nc2nc(-c3cccnc3)cs2)cc1 [compound 951, N-(4-(octylsulfonyl)phenyl)-4-(pyridin-3-yl)thiazol-2-amine]",< 1000
6,"c1ccc(CCCCOc2ccc(Nc3nc(-c4cccnc4)cs3)cc2)cc1 [compound 921, N-(4-(4-phenylbutoxy)phenyl)-4-(pyridin-3-yl)thiazol-2-amine]",< 1000
7,"CCCCCCCCOc1ccc(Nc2nc(-c3csc4nccn34)cs2)cc1C(F)(F)F [compound 807, N-(3-(trifluoromethyl)-4-(octyloxy)phenyl)-4-(imidazo[2,1-b]thiazol-3-yl)thiazol-2-amine]",< 1000
8,"c1cncc(-c2csc(Nc3ccc4c(c3)OCO4)n2)c1 [compound 740, N-(benzo[d][1,3]dioxol-6-yl)-4-(pyridin-3-yl)thiazol-2-amine]",> 10000
9,"CCCCCCCCOc1ccc(Nc2nc(-c3cccnc3)c(F)s2)cc1C(F)(F)F [compound 914, 5-fluoro-N-(3-(trifluoromethyl)-4-(octyloxy)phenyl)-4-(pyridin-3-yl)thiazol-2-amine]",< 1000
